The values that follow come from patent US20090023735A1, “Sulphonamide Derivatives” (priority 2005, published 2009).

The target in one experiment is T1, α2β1 integrin (Homo sapiens, UniProt P17301).
T1 construct: expressed in transfected cells; host or cells: CHO cell clone
T1 sequence (P17301 30-1181): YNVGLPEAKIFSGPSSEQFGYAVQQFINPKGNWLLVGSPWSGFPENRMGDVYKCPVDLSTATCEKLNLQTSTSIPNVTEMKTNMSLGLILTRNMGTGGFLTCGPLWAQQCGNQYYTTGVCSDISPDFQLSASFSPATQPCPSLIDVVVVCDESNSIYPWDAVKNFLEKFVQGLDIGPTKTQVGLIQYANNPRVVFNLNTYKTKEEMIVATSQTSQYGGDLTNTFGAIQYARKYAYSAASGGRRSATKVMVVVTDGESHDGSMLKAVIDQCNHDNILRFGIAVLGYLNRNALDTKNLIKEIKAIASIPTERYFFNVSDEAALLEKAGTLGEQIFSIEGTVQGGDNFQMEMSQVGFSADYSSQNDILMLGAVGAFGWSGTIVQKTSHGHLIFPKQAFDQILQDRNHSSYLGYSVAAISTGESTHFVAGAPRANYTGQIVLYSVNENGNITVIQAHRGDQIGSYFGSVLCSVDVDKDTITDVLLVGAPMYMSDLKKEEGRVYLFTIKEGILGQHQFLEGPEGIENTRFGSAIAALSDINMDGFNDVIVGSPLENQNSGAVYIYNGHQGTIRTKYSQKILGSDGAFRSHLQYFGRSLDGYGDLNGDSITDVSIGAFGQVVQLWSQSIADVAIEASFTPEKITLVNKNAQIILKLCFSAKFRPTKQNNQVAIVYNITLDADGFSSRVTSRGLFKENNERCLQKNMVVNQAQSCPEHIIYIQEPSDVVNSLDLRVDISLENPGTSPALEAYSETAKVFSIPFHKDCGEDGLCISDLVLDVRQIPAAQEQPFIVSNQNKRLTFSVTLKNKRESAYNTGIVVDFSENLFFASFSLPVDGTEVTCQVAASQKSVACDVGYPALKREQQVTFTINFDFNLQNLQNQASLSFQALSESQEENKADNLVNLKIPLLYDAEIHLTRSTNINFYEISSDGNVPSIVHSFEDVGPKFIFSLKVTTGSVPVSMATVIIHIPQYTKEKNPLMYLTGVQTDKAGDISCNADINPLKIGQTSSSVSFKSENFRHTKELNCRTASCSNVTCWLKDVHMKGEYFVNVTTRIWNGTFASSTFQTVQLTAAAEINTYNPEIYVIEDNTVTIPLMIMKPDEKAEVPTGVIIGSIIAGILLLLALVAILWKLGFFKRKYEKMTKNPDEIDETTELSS
The experiment can be described thus: CHO-α2β1 cell adhesion on type I collagen. The conditions noted are these: CHO cells expressing wild type α2 integrin on collagen type I coated wells, 2 h. It is filed as cell-based. How it is done: Chinese Hamster Ovary (CHO) cell clone expressing wild type α2 integrin was used in cell adhesion assay. Cells were suspended in serum free medium containing 0.1 mg/ml cycloheximide (Sigma) and the compounds were preincubated with the cells prior to transfer to the wells. Cells (150000/well) were allowed to attach on collagen type I coated wells (in the presence and absence of inhibitor compounds) for 2 h at +37° C. and after that non-adherent cells were removed. Fresh serum free medium was added and the living cells were detected using a cell viability kit (Roche) according to the manufacturer's protocol.

For experiment [1], the system named is Prostate cancer cells (PC-3). The experiment can be described thus: Cell invasion assay: invasion of PC-3 cells through Matrigel. The conditions noted are these: Homo sapiens, PC-3, 72 h, read-out: EC50 in cell invasion (μM).
Protocol: Prostate cancer cells (PC-3) expressing α2β1 endogenously were used to test the in vitro anticancer potential of the inhibitors of the present invention.
Inserts were stored at −20° C. Before the experiments inserts were allowed to adjust to the room temperature. 500 μl of serum free media (Ham's F12K medium, 2 mM L-glutamine, 1.5 g/l sodium bicarbonate) was added into the inserts and allowed to rehydrate at 37° C. in cell incubator for two hours. The remaining media was aspirated. PC-3 cells were detached, pelleted and suspended into serum free media (50000 cells/500 μl). 300 μl of cell suspension was added into the insert in the absence (control) or presence of the inhibitor according to the present invention. Inserts were placed on the 24-well plates; each well containing 700 μl of cell culture media with 3% of fetal bovine serum as chemo-attractant. Cells were allowed to invade for 72 hours at 37° C. in cell incubator. Inserts were washed with 700 μl PBS, and fixed with 4% paraformaldehyde for 10 minutes. Paraformaldehyde was aspirated and cells were washed with 700 μl of PBS and inserts were stained by incubation with hematoxylin for 1 minute. The stain was removed by washing the inserts with 700 μl of PBS. Inserts were allowed to dry. Fixed invaded cells were calculated under the microscope. Invasion % was calculated as a comparison to the control.
Experiment [2] relates to platelet aggregation in whole blood. The conditions noted are these: PFA-100, collagen plus Epinephrin membrane, compared to control (DMSO), FIG. 1.
Protocol: The PFA-100 is a high shear-inducing device that simulates primary haemostasis after injury of a small vessel. The system comprises a test-cartridge containing a biologically active membrane coated with collagen plus Epinephrin. An anticoaculated whole blood sample was run through a capillary under a constant vacuum. […] The time required to obtain full occlusion of the aperture was designated as the “closure time”. Each compound was added to the whole blood sample and the closure time was measured with PFA-100.
Blood was collected from a donor via venipuncture into evacuated blood collection tubes containing 3.2% buffered sodium sitrate as anticoagulant. Blood was aliquoted into 15 mL tubes and treated with either inhibitory compounds or controls (DMSO). Samples were kept at room temperature with rotation for 10 minutes and after that the closure time of the blood was measured.
Acquisitions resulting in a closure time exceeding the range of measurement of the instrument (>300 seconds) were assigned a value of 300 seconds. Mean and standard deviations were calculated for each treatment. Student's t-test was applied to the resultant data.

Broadly, the inhibition is the drop in the measured response relative to a control, in per cent. A lower inhibition goes with a response near the control. The EC50 is the concentration that produces a half-maximal response.

Molecules are shown by their SMILES. Structures can show the parent of a compound that is named as a salt.

On α2β1 integrin, `COCCN(c1ccc(N(C)C)cc1)S(=O)(=O)c1cccc(-c2ccc(F)cc2)c1` [Compound 353, 4′-fluoro-biphenyl-3-sulfonic acid (4-dimethylamino-phenyl)-(2-methoxy-ethyl)-amide] displayed an inhibition at 50 µM of 11%.
On to `CN(C)CCN(c1ccc(N(C)C)cc1)S(=O)(=O)c1cccc(-c2ccc(F)cc2)c1` [Compound 354, 4′-fluoro-biphenyl-3-sulfonic acid (2-dimethylamino-ethyl)-(4-dimethylamino-phenyl)-amide], for which, at α2β1 integrin, the inhibition at 50 µM stood at 78%.
With `CN(C)c1ccc(N(CCN2CCOCC2)S(=O)(=O)c2cccc(-c3ccc(F)cc3)c2)cc1` [Compound 355, 4′-fluoro-biphenyl-3-sulfonic acid (4-dimethylamino-phenyl)-(2-morpholin-4-yl-ethyl)-amide], the inhibition at 50 µM on α2β1 integrin stood at 18%.
Same read-out and setting: the figure for `CN(C)c1ccc(N(CCn2ccnc2)S(=O)(=O)c2cccc(-c3ccc(F)cc3)c2)cc1` [Compound 358, 4′-fluoro-biphenyl-3-sulfonic acid (4-dimethylamino-phenyl)-(2-imidazol-1-yl-ethyl)-amide] is 71%.
For `CN(C)c1ccc(N(CCO)S(=O)(=O)c2cccc(-c3ccc(F)cc3)c2)cc1` [Compound 359, 4′-fluoro-biphenyl-3-sulfonic acid (4-dimethylamino-phenyl)-(2-hydroxy-ethyl)-amide], the inhibition at 50 µM on α2β1 integrin is 42%.
Regarding `O=S(=O)(Nc1ccc(-c2cnco2)cc1)c1cccc(-c2ccc(F)cc2)c1` [Compound 378, 4′-fluoro-biphenyl-3-sulfonic acid (4-(1,3-oxazol-5-yl)-phenyl)-amide], at α2β1 integrin, the inhibition at 50 µM was determined as 22%.
Still for that read-out and setting: the figure for `CC(=O)c1ccc(NS(=O)(=O)c2cccc(-c3ccc(F)cc3)c2)cc1` [Compound 383, 4′-fluoro-biphenyl-3-sulfonic acid (4-acetyl-phenyl)-amide] is 26%; for `O=C(c1ccccc1)c1ccc(NS(=O)(=O)c2cccc(-c3ccc(F)cc3)c2)cc1` [Compound 384, 4′-fluoro-biphenyl-3-sulfonic acid (4-benzoyl-phenyl)-amide] it is 65%.
Same read-out and setting: the result for `O=S(=O)(Nc1cccc(-c2ccc(F)cc2)c1)c1ccc(Cl)cc1Cl` [Compound 403, 2,4-cichlorophenylsulfonic acid (3-(4-fluorophenyl)phenyl)-amide] reads 56%.
As to `CN(c1ccc(NC(=O)N2CCNC2=O)cc1)S(=O)(=O)c1cccc(-c2ccc(F)cc2)c1` [Compound 430, 2-oxo-imidazolidine-1-carboxylic acid {4-[(4′-fluoro-bi-phenyl-3-sulfonyl)-methyl-amino]-phenyl)-amide], in experiment [1], the EC50 amounted to 12 µM. The compound further showed an inhibition at 50 µM against α2β1 integrin of 53%.
Take `O=C(c1ccccc1)c1cccc(NS(=O)(=O)c2cccc(-c3ccc(F)cc3)c2)c1` [Compound 432, 4′-fluoro-biphenyl-3-sulfonic acid (3-benzoyl-phenyl)-amide]: the EC50 in experiment [1] stood at 1 µM. Further, the inhibition at 50 µM on α2β1 integrin turned out to be 72%.
Consider `O=C(c1ccccc1)c1ccc(NS(=O)(=O)c2cccc(-c3ccc(F)cc3)c2)cc1` [Compound 434, 4′-fluoro-biphenyl-3-sulfonic acid (4-benzoyl-phenyl)-amide sodium salt], for which, in experiment [2], the “closure time of the blood” value is listed as “increase the closure time”. This compound also yielded an inhibition at 50 µM at α2β1 integrin (CHO) of 78%.
`O=[N+]([O-])c1ccc(NS(=O)(=O)c2cccc(-c3ccc(F)cc3)c2)cc1` [Compound 440, 4′-fluoro-biphenyl-3-sulfonic acid (4-nitro-phenyl)-amide]: in experiment [1], the 50% effective concentration (EC50) stood at 8.3 µM. The compound also came in with an inhibition at 50 µM against α2β1 integrin of 59%.
`Cn1cccc1C(=O)Nc1ccc(NS(=O)(=O)c2cccc(-c3ccc(F)cc3)c2)cc1` [Compound 442, 1-methyl-1H-pyrrole-2-carboxylic acid [4-(4′-fluoro-bi-phenyl-3-sulfonylamino)-phenyl]-amide] came in with an inhibition at 50 µM at α2β1 integrin of 21%.
As to `N#Cc1ccc(NS(=O)(=O)c2cccc(-c3ccc(F)cc3)c2)cc1` [Compound 448, 4′-fluoro-biphenyl-3-sulfonic acid (4-cyano-phenyl)-amide], the EC50 in experiment [1] was found to be 27 µM. 50 µM produced 58% inhibition against α2β1 integrin.
For `Cc1cc(NC(=O)c2ccc(NS(=O)(=O)c3cccc(-c4ccc(F)cc4)c3)cc2)no1` [Compound 456, 4-(4′-fluoro-biphenyl-3-sulfonylamino)-N-(5-methyl-isoxazol-3-yl)-benzamide], testing at 50 µM against α2β1 integrin gave an inhibition of 13%.
`O=C(c1ccc(F)cc1)c1ccc(NS(=O)(=O)c2cccc(-c3ccc(F)cc3)c2)cc1` [Compound 458, 4′-fluoro-biphenyl-3-sulfonic acid [4-((4-fluorophenyl)-4-carbonyl)-phenyl]-amide] displayed an inhibition at 50 µM against α2β1 integrin of 66%.
